Results taken from US20250304623A1, “PEPTIDES FOR INTRACELLULAR DELIVERY” (UNIVERSIDADE DE SANTIAGO DE COMPOSTELA, priority 2022, published 2025).
*: point of attachment. NHNH2 = NN*

What was measured:
Type in all cases: cell-based
[1] = test system: HepG2 cells expressing EGFP; test: EGFP-targeting siRNA delivery (GFP silencing vs siMOCK), HepG2
Method: To generate an EGFP expressing HeLa cell line, HeLa cells were transfected with EGFP pDNA (pEGFP-C1, Clontech) and stable transfectants were selected with 400 μg/mL of G-418 (Millipore). Green clones were selected by epifluorescence microscopy and tested for EGFP expression stability through several passages. […] All other EGFP-expressing cell lines were obtained in a similar way from parent non-EGFP-expressing cell lines.
Cells expressing EGFP were seeded in a 96 well plate the day before the experiment at a concentration of 50,000 cell/mL (100 μL/w) in DMEM+10% FBS+1% Gln-Abt. For robotic library screening, the delivery of an EGFP-targeting siRNA (EGFP: enhanced green fluorescent protein, Ambion® Silencer® GFP Positive Control siRNA (siGFP) (AM4626)) in six different cell lines expressing EGFP was performed. […] The mixture was shaken for 30 min at room temperature (rt) before the addition to the cells. The cell medium was aspirated, and cells were washed twice with PBS. Finally, 50 μL of the solution of siRNA/amphiphile complexes were added to the cells and incubated for 4 h. After transfection, the medium was replaced by 100 μL of fresh DMEM supplemented with 10% FBS. The fluorescence knockdown was quantified after 72 h in a plate reader, by comparison with cells transfected with a non-targeting siRNA control (siMOCK, Silencer™ Negative Control No. 1 siRNA (siMOCK) (AM4611)). EGFP knockdown was compared with Lipofectamine® RNAiMAX silencing efficiency (30-60% depending on cell line, defined with a numeric value in the below tables). All experiments were done in triplicate.
Tables 1-7: RLuc (pDNA) or EGFP (mRNA) expression levels were normalized to Lipofectamine reagents (value=1) and expressed as fold-times signal increase. In the case of siRNA, the siRNA treated cells fluorescence was compared with siMOCK control fluorescence, while Cas9-RNP mediated knockout was measured against the fluorescence of untreated cells. In both siRNA and Cas9-RNP, values are expressed as % fluorescence reduction. Amphiphile concentration was 5 μM in all cases. All experiments were performed in triplicate.
Tables 20-25 show the mean (triplicates) percentage of GFP-silencing, accounted by fluorescence intensity decrease relative to a non-targeting siRNA (siMOCK) control, measured after the transfection of siRNA by different amphiphiles at different concentrations in a variety of cell lines. Background values, accounted by untreated control cells, were subtracted for processing.

[2] = test system: HepG2 cells; test: EGFP mRNA delivery, robotic library screening, HepG2; conditions: HepG2 cells
How it was run: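 This robotic library screen tested delivery of CleanCap EGFP mRNA (5moU) into HepG2 cells using amphiphilic molecules. Complexes were freshly prepared at room temperature and added to the cells, and the medium was then replaced with fresh DMEM plus 10% FBS. Total EGFP fluorescence was measured in a plate reader at 72 h in triplicate, with untreated-cell background subtracted.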

[3] = test system: HepG2 cells; test: RLuc pDNA delivery, robotic library screening, HepG2
How it was run: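 After the 4 h exposure the complexes were replaced with fresh DMEM plus 10% FBS. At 72 hours cells were washed with HBSS, kept 30 minutes at 37° C. for basal readings, then given coelenterazine h (5 μM final) for 10 minutes before total luminescence was read. Triplicate means had untransfected background subtracted and were also expressed relative to Lipofectamine® 2000 set at 1.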

Question: For Ac-RRLK*RLK*RRLK*RL-NH2 [Peptide 13.3], which “percentage of GFP-silencing relative to siMOCK” value ([1]; Dodecanal, 10 μM) is on record?
Answer: 31%

Question: And the “percentage of GFP-silencing relative to siMOCK” value ([1]; Dodecanal, 15 μM)?
Answer: 33%

Question: What about the “percentage of GFP-silencing relative to siMOCK” value ([1]; Myristoleyl, 5 μM) of the same substance?
Answer: 13%

Question: What about the “percentage of GFP-silencing relative to siMOCK” value ([1]; Myristoleyl, 10 μM) of the same substance?
Answer: 20%

Question: What about the “percentage of GFP-silencing relative to siMOCK” value ([1]; Palmitoleyl, 5 μM) of the same substance?
Answer: 19%

Question: What about the “percentage of GFP-silencing relative to siMOCK” value ([1]; Palmitoleyl, 10 μM) of the same substance?
Answer: 46%

Question: What about the “percentage of GFP-silencing relative to siMOCK” value ([1]; Palmitoleyl, 15 μM) of the same substance?
Answer: 10%

Question: What about the “percentage of GFP-silencing relative to siMOCK” value ([1]; Petroselinyl, 5 μM) of the same substance?
Answer: 9%

Question: And the “percentage of GFP-silencing relative to siMOCK” value ([1]; Petroselinyl, 10 μM)?
Answer: 41%

Question: What about the “percentage of GFP-silencing relative to siMOCK” value ([1]; Petroselinyl, 15 μM) of the same substance?
Answer: 8%

Question: And the “mean fluorescence intensity after transfection of EGFP mRNA” value (shortened to “mean fluorescence intensity”) ([2]; Dodecanal, 10 μM)?
Answer: 674

Question: And the “mean fluorescence intensity” value ([2]; Dodecanal, 15 μM)?
Answer: 606

Question: What about the “mean fluorescence intensity” value ([2]; Oleyl, 5 μM) of the same substance?
Answer: 1087

Question: What about the “mean fluorescence intensity” value ([2]; Palmitoleyl, 5 μM) of the same substance?
Answer: 689

Question: And the “mean fluorescence intensity” value ([2]; Palmitoleyl, 10 μM)?
Answer: 986

Question: And the “mean fluorescence intensity” value ([2]; Palmitoleyl, 15 μM)?
Answer: 974

Question: What about the “mean fluorescence intensity” value ([2]; Petroselinyl, 10 μM) of the same substance?
Answer: 1128

Question: And the “mean fluorescence intensity” value ([2]; Petroselinyl, 15 μM)?
Answer: 967

Question: What about the “mean luminescent intensity (RLuc pDNA)” value ([3]; Myristoleyl, 5 μM) of the same substance?
Answer: 91601 RLU

Question: What about the “mean luminescent intensity (RLuc pDNA)” value ([3]; Myristoleyl, 10 μM) of the same substance?
Answer: 54569 RLU

Question: And the “mean luminescent intensity (RLuc pDNA)” value ([3]; Myristoleyl, 15 μM)?
Answer: 59751 RLU

Question: What about the “mean luminescent intensity (RLuc pDNA)” value ([3]; Oleyl, 15 μM) of the same substance?
Answer: −1067 RLU

Question: What about the “mean luminescent intensity (RLuc pDNA)” value ([3]; Palmitoleyl, 5 μM) of the same substance?
Answer: 70999 RLU

Question: What about the “mean luminescent intensity (RLuc pDNA)” value ([3]; Palmitoleyl, 15 μM) of the same substance?
Answer: 16521 RLU

Question: And the “mean luminescent intensity (RLuc pDNA)” value ([3]; Petroselinyl, 5 μM)?
Answer: 76240 RLU

Question: “Ac-RRLK*RLLRRLK*RLK*RRL-NH2 (Ac-RRLK(NHNH2)RLLRRLK(NHNH2)RLK(NHNH2)RRL-NH2; not fully specified; printed as Ac-RRLK*RLLRRLK*RLK*RRL-NH2; also: K*4,K*11,K*14: native or modified lysine (ε-amide to a linker)) [Peptide 17.3]” was tested. Which “percentage of GFP-silencing relative to siMOCK” value ([1]; Dodecanal, 5 μM) did it give?
Answer: 13%

Question: What about the “percentage of GFP-silencing relative to siMOCK” value ([1]; Dodecanal, 10 μM) of the same substance?
Answer: 18%

Question: What about the “percentage of GFP-silencing relative to siMOCK” value ([1]; Dodecanal, 15 μM) of the same substance?
Answer: −4%

Question: And the “percentage of GFP-silencing relative to siMOCK” value ([1]; Myristoleyl, 15 μM)?
Answer: −18%

Question: And the “percentage of GFP-silencing relative to siMOCK” value ([1]; Oleyl, 10 μM)?
Answer: 8%

Question: And the “percentage of GFP-silencing relative to siMOCK” value ([1]; Palmitoleyl, 5 μM)?
Answer: 4%

Question: What about the “percentage of GFP-silencing relative to siMOCK” value ([1]; Palmitoleyl, 15 μM) of the same substance?
Answer: −2%

Question: And the “percentage of GFP-silencing relative to siMOCK” value ([1]; Petroselinyl, 5 μM)?
Answer: −11%

Question: And the “percentage of GFP-silencing relative to siMOCK” value ([1]; Petroselinyl, 10 μM)?
Answer: 5%

Question: What about the “mean fluorescence intensity” value ([2]; Dodecanal, 5 μM) of the same substance?
Answer: 32417

Question: What about the “mean fluorescence intensity” value ([2]; Dodecanal, 10 μM) of the same substance?
Answer: 2293

Question: What about the “mean fluorescence intensity” value ([2]; Myristoleyl, 5 μM) of the same substance?
Answer: 39022

Question: And the “mean fluorescence intensity” value ([2]; Myristoleyl, 10 μM)?
Answer: 251

Question: And the “mean fluorescence intensity” value ([2]; Myristoleyl, 15 μM)?
Answer: −417

Question: What about the “mean fluorescence intensity” value ([2]; Oleyl, 5 μM) of the same substance?
Answer: 6483

Question: And the “mean fluorescence intensity” value ([2]; Palmitoleyl, 5 μM)?
Answer: 63064

Question: What about the “mean fluorescence intensity” value ([2]; Palmitoleyl, 10 μM) of the same substance?
Answer: 7710

Question: And the “mean fluorescence intensity” value ([2]; Palmitoleyl, 15 μM)?
Answer: 356

Question: And the “mean fluorescence intensity” value ([2]; Petroselinyl, 5 μM)?
Answer: 56287

Question: And the “mean fluorescence intensity” value ([2]; Petroselinyl, 10 μM)?
Answer: 5790

Question: What about the “mean fluorescence intensity” value ([2]; Petroselinyl, 15 μM) of the same substance?
Answer: 157

Question: What about the “mean luminescent intensity (RLuc pDNA)” value ([3]; Dodecanal, 5 μM) of the same substance?
Answer: 32417 RLU

Question: And the “mean luminescent intensity (RLuc pDNA)” value ([3]; Dodecanal, 10 μM)?
Answer: 2293 RLU

Question: What about the “mean luminescent intensity (RLuc pDNA)” value ([3]; Dodecanal, 15 μM) of the same substance?
Answer: −1196 RLU

Question: And the “mean luminescent intensity (RLuc pDNA)” value ([3]; Myristoleyl, 5 μM)?
Answer: 39022 RLU

Question: What about the “mean luminescent intensity (RLuc pDNA)” value ([3]; Myristoleyl, 15 μM) of the same substance?
Answer: −417 RLU

Question: And the “mean luminescent intensity (RLuc pDNA)” value ([3]; Oleyl, 5 μM)?
Answer: 6483 RLU

Question: What about the “mean luminescent intensity (RLuc pDNA)” value ([3]; Oleyl, 15 μM) of the same substance?
Answer: −1375 RLU

Question: And the “mean luminescent intensity (RLuc pDNA)” value ([3]; Palmitoleyl, 5 μM)?
Answer: 63064 RLU

Question: And the “mean luminescent intensity (RLuc pDNA)” value ([3]; Palmitoleyl, 15 μM)?
Answer: 356 RLU
